Here are results for seven compounds from patent publication US4251539A, “Amino derivatives of 3-alkyl-5-(2-hydroxystyryl)-isoxazoles” (BASF Aktiengesellschaft, priority 1978, dated 1981).

Molecules are shown by their SMILES.

Data set [1] has as its system blood pressure in the carotid artery. The data set is described as follows: animal or person. The note with it: for ED20: Rattus norvegicus, iv, read-out: Blood pressure-lowering action ED 20%; for animals died: 10 mg/kg, rats. The method, then:
2. Blood pressure-lowering action on narcotized rats.
The blood pressure in the carotid artery is measured by means of a Statham transducer.
(2) Intravenous administration to rats under urethane narcosis. ED 20% =
dose, in mg/kg, which lowers the blood pressure by 20%.

The test system of data set [2] is isoproterenol-induced tachycardia. The note with it: for ED50: Felis catus, read-out: β-Sympatholytic action ED 50%; for ED50 / β-Sympatholytic action R.A. (relative activity): iv; for β-sympatholytic activity (in words) / β-Sympatholytic action R.A. (relative activity): in vivo.
The nature of data set [3]: in vivo. The conditions noted are these: for LD 50 / toxicity compared with propranolol (in words): i.p., mice. From the text:
4. Acute toxicity in mice
The period of observation is 1 week.
(4) Intraperitoneal administration to mice.

Data set [4] concerns systolic blood pressure. The experiment in a line: Anti-hypertensive action on spontaneously hypertonic rats (oral). The data set is classed as in vivo, male spontaneously hypertonic Okamoto rats. How it is done:
3. Anti-hypertensive action on spontaneously hypertonic rats.
The substances are administered orally to groups of 8 male spontaneously hypertonic Okamoto rats (weight 280-350 g). Before, and two hours after, the administration the systolic blood pressure is measured non-surgically on the rats' tails by means of piezoelectric crystal sensors.

For data set [5], the system named is blood pressure in the carotid artery. The note with it: general statement, no test or species given; cited from earlier work.
The mark [6] stands for this setting: 0.001 mg/kg i.v., cats under hexobarbital narcosis, average.

Turning to `Cc1cc(C=Cc2ccccc2OCC(O)CNC(C)C)on1` (stereo not drawn) [Example 1, 3-Methyl-5-[2-(2-hydroxy-3-isopropyl-aminopropoxy)-styryl]-isoxazole], the ED20 in data set [1] turned out to be 0.65 mg/kg. Also, in data set [2], the ED50 was determined as 0.0077 mg/kg and the “β-sympatholytic activity (in words)” value is “high activity”. Further, the “LD 50 / toxicity compared with propranolol (in words)” value in data set [3] is recorded as “of the same toxicity, or somewhat more toxic”.

In the case of `Cc1cc(C=Cc2ccccc2OCC(O)CNC(C)(C)C)on1` (stereo not drawn) [Example 3, 3-Methyl-5-[2-(2-hydroxy-3-tert.-butylaminopropoxy)-styryl]-isoxazole], the ED20 in data set [1] is 0.4 mg/kg; in data set [4] (Rattus norvegicus, po, 2 h, read-out: Anti-hypertensive action ED 20%), 14.5 mg/kg. Further, the animals died in data set [1] (i.v.) is on record as 1 out of 6. Besides, in data set [1] (i.v., rats under urethane narcosis, dose lowering mean carotid artery pressure by 20%), the “Blood pressure-lowering action ED 20%” value came out at 0.40 mg/kg. For the same compound, the ED50 in data set [2] was determined as 0.0055 mg/kg. In data set [3], the “LD 50 / toxicity compared with propranolol (in words)” value is recorded as “somewhat higher than that of propranolol”.

For orientation: LD50 means the dose expected to kill half of the subjects tested. Low values mean a more toxic substance, high ones a less toxic substance. For the compound `CCc1cc(C=Cc2ccccc2OCC(O)CNC2CC2)on1` (stereo not drawn) [Example 5, 3-Ethyl-5-[2-(2-hydroxy-3-cyclopropylaminopropoxy)-styryl]-isoxazole], the ED20 in data set [1] was 0.83 mg/kg. Besides, in data set [2], the ED50 amounted to 0.12 mg/kg and the “β-Sympatholytic action R.A. (relative activity)” value is reported as 0.9. The “LD 50 / toxicity compared with propranolol (in words)” value in data set [3] is given as “of the same toxicity, or somewhat more toxic”. The compound further gave an LD50 at 168 h in data set [3] (mouse, in vivo, ip) of 95 mg/kg.

On to `CCc1cc(C=Cc2ccccc2OCC(O)CNC(C)(C)C)on1` (stereo not drawn) [Example 6, 3-Ethyl-5-[2-(2-hydroxy-3-tert.-butylaminopropoxy)-styryl]-isoxazole], for which the ED20 in data set [1] was 0.93 mg/kg. Further, in data set [2], the ED50 is 0.018 mg/kg, the “β-sympatholytic activity (in words)” value is listed as “high activity” and the “β-Sympatholytic action R.A. (relative activity)” value is given as 6.1. The “LD 50 / toxicity compared with propranolol (in words)” value in data set [3] is given as “of the same toxicity, or somewhat more toxic”.

On to `C#CC(C)(C)NCC(O)COc1ccccc1C=Cc1cc(C)no1` (stereo not drawn) [Example 13, 3-Methyl-5-[2-(2-hydroxy-3-(3-methyl-but-1-ynyl-3-amino)-propoxy)-styryl]-isoxazole], for which the ED20 in data set [1] was 1 mg/kg. Moreover, in data set [2], the ED50 was determined as 0.017 mg/kg and the “β-Sympatholytic action R.A. (relative activity)” value was 6.5. The “LD 50 / toxicity compared with propranolol (in words)” value in data set [3] is listed as “more than twice as high as that of propranolol”.

`CC(C)NCC(O)COc1cccc2ccccc12` (stereo not drawn) [Propranolol, reference compound]: in data set [1] (i.v.), the animals died is recorded as 2 out of 6. Besides, in data set [2], the ED50 is 0.11 mg/kg. For the same compound, in data set [5], the “anti-hypertensive action of conventional β-sympatholytic agents (in words)” value is on record as “only exhibit an anti-hypertensive action on lengthy administration”. The “anti-hypertensive action, oral (in words)” value in data set [4] (oral, spontaneously hypertonic rats, propranolol up to a dose of 100 mg/kg) is reported as “ineffective”.

`CC(C)NCC(O)c1ccc(O)c(O)c1` (stereo not drawn) [isoproterenol, reference compound]: in data set [2] (setting [6]), the “increase of pulse rate” value was 61 beats and the “increase of pulse rate, percent” value amounted to 40%.
